The numbers were not newly measured in patent US11759462B2, “Spirocyclic compounds as tryptophan hydroxylase inhibitors” (priority 2013, dated 2023), which cites them from elsewhere.

For one data set, the system named is TPH. To be noted: background statement; cited from earlier work.
The conditions of data set [1]: carcinoid tumor patients; cited from earlier work.
Data set [2] relates to central 5-HT production / CNS functions. To be noted: cited from earlier work.

Take `N[C@@H](Cc1ccc(Cl)cc1)C(=O)O` (racemic) [pCPA, p-chlorophenylalanine]: the “TPH inhibition (in words)” value in the data set on TPH is “very weak and unselective irreversible inhibitor of TPH”. Also, the “efficacy against chemotherapy-induced emesis and diarrhea” value in data set [1] is “proven effective in treating chemotherapy-induced emesis, as well as diarrhea”. In addition, the CNS side effects entry in data set [2] (patients and animals) is “linked to the onset of depression and other alterations of CNS functions”.

For the compound `C#Cc1ccc(C[C@H](N)C(=O)O)cc1` [p-Ethynyl phenylalanine], in the data set on TPH, the “TPH inhibition (in words)” value was “more selective and more potent TPH inhibitor than pCPA”. Further, the “effect on central 5-HT production” value in data set [2] (in vivo) is given as “affects central 5-HT production”.
